Laboratory results as given in patent publication US12263171B2, “7-, 8-, and 10-substituted amino triazolo quinazoline derivatives as adenosine receptor antagonists, pharmaceutical compositions and their use” (Merck Sharp & Dohme LLC, priority 2018, dated 2025).

Columns and labels:
[1] = target: human A2a adenosine receptor (Homo sapiens (Human), UniProt P29274); assay: A2a receptor affinity radioligand binding assay ([3H] SCH58261, membranes from HEK293 or CHO cells); conditions: unstarred values: radioligand binding
human A2a adenosine receptor, sequence (P29274 whole entry): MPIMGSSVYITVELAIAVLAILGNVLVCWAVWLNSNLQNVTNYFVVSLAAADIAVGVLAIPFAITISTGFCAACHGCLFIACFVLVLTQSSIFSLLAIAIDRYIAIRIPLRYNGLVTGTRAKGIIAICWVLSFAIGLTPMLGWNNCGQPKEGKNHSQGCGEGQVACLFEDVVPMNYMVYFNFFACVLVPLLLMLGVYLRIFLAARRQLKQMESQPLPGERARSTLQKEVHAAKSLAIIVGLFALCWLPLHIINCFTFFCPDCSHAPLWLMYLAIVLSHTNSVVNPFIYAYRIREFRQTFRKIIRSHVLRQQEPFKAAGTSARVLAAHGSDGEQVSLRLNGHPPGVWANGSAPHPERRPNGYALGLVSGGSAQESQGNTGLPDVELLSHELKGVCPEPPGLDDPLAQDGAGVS
Method in brief: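 Displacement of tritiated SCH58261 (working dilution 4 nM) from recombinant human A2a receptor membranes (HEK293 or CHO), 60 min at room temperature in Tris pH 7.4/MgCl2 buffer after 15–30 min compound preincubation. Scintillation counting after filtration; normalized percent effect fitted 4-parameter logistic for IC50.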

[2] = target: T1, human A2b adenosine receptor (Homo sapiens (Human), UniProt P29275); assay: A2B antagonism in cAMP cell-based assay (LANCE cAMP, HEK293 cells, 600 nM adenosine); conditions: for IC50: values marked *: cAMP cell-based assay
T1 sequence (P29275 whole entry): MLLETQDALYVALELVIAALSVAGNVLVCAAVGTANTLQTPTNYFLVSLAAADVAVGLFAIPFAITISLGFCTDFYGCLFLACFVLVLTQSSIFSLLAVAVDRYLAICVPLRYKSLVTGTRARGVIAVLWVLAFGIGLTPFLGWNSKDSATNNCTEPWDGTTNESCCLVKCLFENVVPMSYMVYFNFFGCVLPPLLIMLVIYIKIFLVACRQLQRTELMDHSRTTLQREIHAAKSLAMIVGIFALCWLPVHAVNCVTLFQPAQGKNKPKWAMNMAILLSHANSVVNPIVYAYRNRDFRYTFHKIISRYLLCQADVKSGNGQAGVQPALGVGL
Procedure: Measurement of A2A and A2B Antagonism in cAMP Cell-Based Assay
All subsequent liquid additions were performed using a multichannel pipettor. […] After this time 5 μL of either 300 nM or 600 nM adenosine (Sigma Cat. No. A9251) for A2A and A2B respectively was added and incubated for 30 minutes at 37° C. and 5% CO2 in a humidified environment. At this time detection mix was prepared by combining the LANCE Eu-W8044 labeled streptavidin and. Biotin-cAMP in detection buffer according to the manufacturers protocol. […] Curve fitting of the percent effect data versus the log of compound concentration used a 4-parameter concentration response curve fitting algorithm to calculate IC50 values.

[3] = target: T1, human A2b adenosine receptor; assay: A2b radioligand filtration binding assay (tritiated proprietary A2b antagonist, HEK293 membranes); conditions: for IC50: unstarred values: radioligand binding
Method in brief: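 Displacement of a tritiated proprietary A2b antagonist from membranes of HEK293 cells recombinantly expressing human A2b receptor, measured by filtration and scintillation counting. Percent effect was normalized to total and non-specific binding and fitted with a 4-parameter logistic to give IC50.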

Structure (SMILES) | IC50 [1] | IC50 [2] | *A2B cAMP ^ % @ 10000 nM ([2]; @ 10000 nM, marked *, printed with ^ and without inh.) | IC50 [3] | A2B binding % inh. @ 10000 nM ([3]; @ 10000 nM, unstarred)
Nc1nc2c(Cl)cccc2c2nc(C3CCCN(c4cnn(C5CC5)c4)C3)nn12 (racemic) [Example 133, rac-7-chloro-2-(1-(1-cyclopropyl-1H-pyrazol-4-yl)piperidin-3-yl)-[1,2,4]triazolo[1,5-c]pyquinazolin-5-amine] | 1.2 nM | 116 nM |  |  | 
Cn1cc(N2CCCC(c3nc4c5cccc(F)c5nc(N)n4n3)C2)cn1 (single isomer, unassigned) [Example 131A, (R or S)-7-fluoro-2-(1-(1-methyl-1H-pyrazol-4-yl)piperidin-3-yl)-[1,2,4]triazolo[1,5-c]quinazolin-5-amine] | 34 nM | 1680 nM |  |  | 
Cn1cc(N2CCCC(c3nc4c5cccc(F)c5nc(N)n4n3)C2)cn1 (single isomer, unassigned) [Example 131B, (S or R)-7-fluoro-2-(1-(1-methyl-1H-pyrazol-4-yl)piperidin-3-yl)-[1,2,4]triazolo[1,5-c]quinazolin-5-amine] | 9.3 nM | 121 nM |  |  | 
Cn1cc(N2CCCC(c3nc4c5cccc(Cl)c5nc(N)n4n3)C2)cn1 (single isomer, unassigned) [Example 132A] | 18.6 nM |  | 31% @ 10000 nM* |  | 
Cn1cc(N2CCCC(c3nc4c5cccc(Cl)c5nc(N)n4n3)C2)cn1 (single isomer, unassigned) [Example 132B] | 3.9 nM | 205 nM |  |  | 
COc1cccc2c1nc(N)n1nc(C3CCC(C)N(c4cnn(C5CC5)c4)C3)nc21 (single isomer, unassigned) [Example 141A] | 2.2 nM | 712 nM |  |  | 
COc1cccc2c1nc(N)n1nc(C3CCC(C)N(c4cnn(C5CC5)c4)C3)nc21 (single isomer, unassigned) [Example 141B] | 28.2 nM | 2610 nM |  |  | 
COc1cccc2c1nc(N)n1nc(C3CCC(C)N(c4cnn(C5CC5)c4)C3)nc21 (single isomer, unassigned) [Example 141D] | 3.1 nM | 1650 nM |  |  | 
COc1cccc2c1nc(N)n1nc(C3CCC(C)N(c4cnn(CC(F)(F)F)c4)C3)nc21 (single isomer, unassigned) [Example 142A, 7-methoxy-2-((3S,6S or 3R,6R)-6-methyl-1-(1-(2,2,2-trifluoroethyl)-1H-pyrazol-4-yl)piperidin-3-yl)-[1,2,4]triazolo[1,5-c]quinazolin-5-amine] | 53.8 nM | 985 nM |  |  | 
COc1ccc2c(c1)nc(N)n1nc([C@@H]3CCCN(c4ccc(OC(C)C)nc4)C3)nc21 [Example 192, (R)-2-(1-(6-isopropoxypyridin-3-yl)piperidin-3-yl)-8-methoxy-[1,2,4]triazolo[1,5-c]quinazolin-5-amine] | 2.5 nM |  |  | 22.7 nM | 
COc1ccc2c(c1)nc(N)n1nc([C@@H]3CCCN(c4ccc(C(C)=O)cc4)C3)nc21 [Example 193, (R)-1-(4-(3-(5-amino-8-methoxy-[1,2,4]-triazolo[1,5-c]quinazolin-2-yl)piperidin-1-yl)phenyl)ethan-1-one] | 2.2 nM |  |  | 130 nM | 
COc1ccc2c(c1)nc(N)n1nc([C@@H]3CCCN(c4ncn(CC(C)(C)O)n4)C3)nc21 [Example 194, (R)-1-(3-(3-(5-amino-8-methoxy-[1,2,4]triazolo[1,5-c]quinazolin-2-yl)piperidin-1-yl)-1H-1,2,4-triazol-1-yl)-2-methylpropan-2-ol] | 6.7 nM |  |  | 528 nM | 
COc1ccc2c(c1)nc(N)n1nc([C@H]3C[C@@H](C)CN(c4cnn(CC(C)(C)O)c4)C3)nc21 [Example 195A] | 35.9 nM |  |  | 5810 nM | 
COc1ccc2c(c1)nc(N)n1nc([C@@H]3C[C@@H](C)CN(c4cnn(CC(C)(C)O)c4)C3)nc21 [Example 195B] | 1.7 nM |  |  | 9690 nM | 
COc1ccc2c(c1)nc(N)n1nc([C@H]3C[C@H](C)CN(c4cnn(CC(C)(C)O)c4)C3)nc21 [Example 195C] | 281 nM |  |  | 9440 nM | 
COc1ccc2c(c1)nc(N)n1nc([C@H]3C[C@@H](F)CN(c4cnn(CC(C)(C)O)c4)C3)nc21 [Example 196A] | 2.9 nM |  |  | 802 nM | 
COc1ccc2c(c1)nc(N)n1nc([C@H]3C[C@@H](F)CN(c4cn(CC(C)(C)O)nc4C)C3)nc21 [Example 197A, 1-(4-((3S,5R)-3-(5-amino-8-methoxy-[1,2,4]triazolo[1,5-c]quinazolin-2-yl)-5-fluoropiperidin-1-yl)-3-methyl-1H-pyrazol-1-yl)-2-methylpropan-2-ol] | 99 nM |  |  |  | 31% inh. @ 10000 nM
COc1ccc2c(c1)nc(N)n1nc([C@@H]3C[C@H](F)CN(c4cn(CC(C)(C)O)nc4C)C3)nc21 [Example 197B, 1-(4-((3R,5S)-3-(5-amino-8-methoxy-[1,2,4]triazolo[1,5-c]quinazolin-2-yl)-5-fluoropiperidin-1-yl)-3-methyl-1H-pyrazol-1-yl)-2-methylpropan-2-ol] | 0.4 nM |  |  | 1370 nM | 
C[C@H]1CC[C@@H](c2nc3c4ccc(C(F)F)cc4nc(N)n3n2)CN1c1cnn(CC(C)(C)O)c1 [Example 201, 1-(4-((2S,5R)-5-(5-amino-8-(difluoromethyl)-[1,2,4]triazolo[1,5-c]quinazolin-2-yl)-2-methylpiperidin-1-yl)-1H-pyrazol-1-yl)-2-methylpropan-2-ol] | 2.8 nM |  |  | 10.6 nM | 
C[C@H]1CC[C@@H](c2nc3c4ccc(C#N)cc4nc(N)n3n2)CN1c1cnn(CC(C)(C)O)c1 [Example 202, 5-amino-2-((3R,6S)-1-(1-(2-hydroxy-2-methylpropyl)-1H-pyrazol-4-yl)-6-methylpiperidin-3-yl)-[1,2,4]triazolo[1,5-c]quinazoline-8-carbonitrile] | 4.2 nM |  |  | 211 nM | 
C[C@H]1CC[C@@H](c2nc3c4ccc(Cl)cc4nc(N)n3n2)CN1c1cnn(CC(C)(C)O)c1 [Example 203, 1-(4-((2S,5R)-5-(5-amino-8-chloro-[1,2,4]triazolo[1,5-c]quinazolin-2-yl)-2-methylpiperidin-1-yl)-1H-pyrazol-1-yl)-2-methylpropan-2-ol] | 0.7 nM |  |  | 1.7 nM | 
COc1ccc2c(c1)nc(N)n1nc([C@@H]3CC[C@H](C)N(c4cnn(CC(C)(C)O)c4)C3)nc21 [Example 204, 1-(4-((2S,5R)-5-(5-amino-8-methoxy-[1,2,4]triazolo[1,5-c]quinazolin-2-yl)-2-methylpiperidin-1-yl)-1H-pyrazol-1-yl)-2-methylpropan-2-ol] | 0.4 nM |  |  | 1.1 nM | 
CCc1ccc2c(c1)nc(N)n1nc([C@@H]3CC[C@H](C)N(c4cnn(CC(C)(C)O)c4)C3)nc21 [Example 207, 1-(4-((2S,5R)-5-(5-amino-8-ethyl-[1,2,4]triazolo[1,5-c]quinazolin-2-yl)-2-methylpiperidin-1-yl)-1H-pyrazol-1-yl)-2-methylpropan-2-ol] | 2.8 nM |  |  | 125 nM | 
C[C@H]1CC[C@@H](c2nc3c4ccc(C5CCC5)cc4nc(N)n3n2)CN1c1cnn(CC(C)(C)O)c1 [Example 209, 1-(4-((2S,5R)-5-(5-amino-8-cyclobutyl-[1,2,4]triazolo[1,5-c]quinazolin-2-yl)-2-methylpiperidin-1-yl)-1H-pyrazol-1-yl)-2-methylpropan-2-ol] | 28.7 nM |  |  | 328 nM | 
COc1ccc2c(c1)nc(N)n1nc([C@@H]3CC[C@H](C)N(c4cnn(C5CCC[C@H]5O)c4)C3)nc21 (stereo partly drawn) [Example 210A] | 0.2 nM |  |  | 4.8 nM | 
COc1ccc2c(c1)nc(N)n1nc([C@@H]3CC[C@H](C)N(c4cnn([C@@H](C)C(C)(C)O)c4)C3)nc21 [Example 211A, (S)-3-(4-((2S,5R)-5-(5-amino-8-methoxy-[1,2,4]triazolo[1,5-c]quinazolin-2-yl)-2-methylpiperidin-1-yl)-1H-pyrazol-1-yl)-2-methylbutan-2-ol] | 0.5 nM |  |  | 3.4 nM | 
COc1ccc2c(c1)nc(N)n1nc([C@@H]3CC[C@H](C)N(c4cnn([C@H](C)C(C)(C)O)c4)C3)nc21 [Example 211B, (R)-3-(4-((2S,5R)-5-(5-amino-8-methoxy-[1,2,4]triazolo[1,5-c]quinazolin-2-yl)-2-methylpiperidin-1-yl)-1H-pyrazol-1-yl)-2-methylbutan-2-ol] | 0.6 nM |  |  | 16.1 nM | 
COc1ccc2c(c1)nc(N)n1nc([C@H]3CC[C@@H](C)N(c4cnn([C@@H](C)C(C)(C)O)c4)C3)nc21 [Example 212A] | 221 nM |  |  | 5480 nM | 
COc1ccc2c(c1)nc(N)n1nc([C@H]3CC[C@@H](C)N(c4cnn([C@H](C)C(C)(C)O)c4)C3)nc21 [Example 212B, (R)--3-(4-((2R,5S)-5-(5-amino-8-methoxy-[1,2,4]triazolo[1,5-c]quinazolin-2-yl)-2-methylpiperidin-1-yl)-1H-pyrazol-1-yl)-2-methylbutan-2-ol] | 234 nM |  |  | 8280 nM | 
COc1ccc2c(c1)nc(N)n1nc(C3CCCCN(c4cnn(CC(C)(C)O)c4)C3)nc21 (stereo not drawn) [Example 217, 1-(4-(3-(5-amino-8-methoxy-[1,2,4]triazolo[1,5-c]quinazolin-2-yl)azepan-1-yl)-1H-pyrazol-1-yl)-2-methylpropan-2-ol] | 4.6 nM |  |  | 207 nM | 
